Data from PMC5452050 (ACS Omega, 2017).
≈ marks a conversion by molar mass, not a printed value. Blank lines part the entries; values can stand above or below the compound they belong to.

Key:
MV4-11 cells = experiment: MV4-11 cell proliferation; assay type: cell-based; conditions: for EC50: Homo sapiens, MV4-11, 72 h, read-out: MV4-11 EC50
[1] = molecular target: T1, recombinant human FLT3 (571–993) (Homo sapiens, UniProt P36888); experiment: biochemical; assay type: biochemical; conditions: for IC50: FLT3 IC50, FLT3^WT enzyme, 500 μM ATP
T1 sequence (P36888 571-993): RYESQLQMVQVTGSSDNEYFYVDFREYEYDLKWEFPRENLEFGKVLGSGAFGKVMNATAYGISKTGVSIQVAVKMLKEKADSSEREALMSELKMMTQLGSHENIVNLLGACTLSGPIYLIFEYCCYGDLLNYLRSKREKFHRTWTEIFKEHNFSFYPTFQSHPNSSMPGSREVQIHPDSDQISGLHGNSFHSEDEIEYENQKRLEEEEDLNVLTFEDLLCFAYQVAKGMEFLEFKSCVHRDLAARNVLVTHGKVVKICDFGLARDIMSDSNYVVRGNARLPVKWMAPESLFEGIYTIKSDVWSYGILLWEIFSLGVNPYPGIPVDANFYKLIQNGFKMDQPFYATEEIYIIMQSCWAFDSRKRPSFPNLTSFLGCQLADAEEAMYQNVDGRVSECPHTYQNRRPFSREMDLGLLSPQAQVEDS

[2] = Liver microsomal stability; conditions: rat, liver microsomes, pH 7.4
Solubility = assay type: physicochemical; conditions: buffer, pH 7.4, aqueous buffer, kinetic from dmso stock
FLT3-ITD phosphorylation = experiment: Western blot of FLT3 signaling in MOLM13^FLT3-ITD cells; assay type: cell-based; conditions: 1 h, read-out: FLT3 IC50 estimated from loss of FLT3-ITD phosphorylation
Plasma stability [3] = assay type: in vitro ADME; conditions: human
[4] = Liver microsomal stability; conditions: female, CD-1, mouse, liver microsomes, pH 7.4
Plasma stability [5] = assay type: in vitro ADME; conditions: rat
MOLM13^FLT3-ITD cells = experiment: MOLM13 cell viability; assay type: cell-based; conditions: Homo sapiens, MOLM-13, 72 h, read-out: MOLM13^FLT3-ITD IC50
[6] = Liver microsomal stability; conditions: dog, liver microsomes, pH 7.4
[7] = Liver microsomal stability; conditions: both, human, liver microsomes, pH 7.4
[8] = system: MOLM13^FLT3-ITD/D835Y cells; experiment: MOLM13 cell viability; assay type: cell-based; conditions: Homo sapiens, MOLM-13, 72 h, read-out: MOLM13^FLT3-ITD/D835Y IC50
Plasma stability [9] = assay type: in vitro ADME; conditions: mouse
BJ cells = experiment: BJ fibroblast proliferation; assay type: cell-based; conditions: Homo sapiens, 72 h, read-out: BJ EC50, 72 h

Structure (SMILES): CC(C)(C)Nc1ccnc(Nc2cccc(-c3cccnc3)c2)n1 [Compound 5f, N^4-(tert-Butyl)-N^2-(3-(pyridin-3-yl)phenyl)pyrimidine-2,4-diamine]
fold improvement in MV4-11 growth inhibition relative to 1 (MV4-11 cells): approximately 10 fold

Structure (SMILES): CC[C@H](C)Nc1ccnc(Nc2cccc(-c3cccnc3)c2)n1 [Compound 5j, (S)-N^4-(sec-Butyl)-N^2-(3-(pyridin-3-yl)phenyl)pyrimidine-2,4-diamine]
fold improvement in MV4-11 growth inhibition relative to 1 (MV4-11 cells): approximately 10 fold

Structure (SMILES): CC[C@@H](C)Nc1ccnc(Nc2cccc(-c3cccnc3)c2)n1 [Compound 5k, (R)-N^4-(sec-Butyl)-N^2-(3-(pyridin-3-yl)phenyl)pyrimidine-2,4-diamine]
fold improvement in MV4-11 growth inhibition relative to 1 (MV4-11 cells): approximately 10 fold

fold more potent than 1 against FLT3 [1]: approximately 4 fold
Structure (SMILES): c1cncc(-c2cccc(Nc3nccc(NC4CCNCC4)n3)c2)c1 [Compound 5q, N^4-(Piperidin-4-yl)-N^2-(3-(pyridin-3-yl)phenyl)pyrimidine-2,4-diamine]

CLint scaled at 4 µM [2]: 122 mL/min/kg
half-life at 4 µM [2]: 22.8 ± 0.6 min
solubility at 18 h (Solubility): 56.9 ± 1.9 µM (≈ 17.4 µg/mL)
IC50 (FLT3-ITD phosphorylation): 50 to 100 nM
plasma stability (Plasma stability [3]): >50 h
CLint scaled at 4 µM [4]: 485 mL/min/kg
half-life at 4 µM [4]: 7.08 ± 0.18 min
plasma stability (Plasma stability [5]): >50 h
IC50 (MOLM13^FLT3-ITD cells): 45 nM
CLint scaled at 4 µM [6]: 37 mL/min/kg
half-life at 4 µM [6]: 54 ± 1.2 min
CLint scaled at 4 µM [7]: 14.2 mL/min/kg
half-life at 4 µM [7]: 87.6 ± 6 min
IC50 [8]: 77 nM
plasma stability (Plasma stability [9]): >50 h
Structure (SMILES): CC(C)Nc1ccnc(Nc2cccc(-c3cnccn3)c2)n1 [Compound 6k, N^4-Isopropyl-N^2-(3-(pyrazin-2-yl)phenyl)pyrimidine-2,4-diamine]

IC50 [1]: 80 nM
EC50 (MV4-11 cells): > 10000 nM
Structure (SMILES): c1cncc(-c2cccc(Nc3cccc(NC4CCCCC4)n3)c2)c1 [Compound 9, N^2-Cyclohexyl-N^6-(3-(pyridin-3-yl)phenyl)pyridine-2,6-diamine]
EC50 (BJ cells): > 10000 nM

IC50 [1]: 1500 nM
EC50 (MV4-11 cells): > 16000 nM
Structure (SMILES): c1cncc(-c2cccc(Nc3cc(NC4CCCCC4)ccn3)c2)c1 [Compound 13, N^4-cyclohexyl-N^2-(3-(pyridin-3-yl)phenyl)pyridine-2,4-diamine]
EC50 (BJ cells): 10600 nM

IC50 [1]: 141 nM
EC50 (MV4-11 cells): > 8000 nM
Structure (SMILES): c1cncc(-c2cccc(Nc3ccnc(NC4CCCCC4)c3)c2)c1 [Compound 14, N^2-Cyclohexyl-N^4-(3-(pyridin-3-yl)phenyl)pyridine-2,4-diamine]
EC50 (BJ cells): 8740 nM

IC50 [1]: 82 nM
EC50 (MV4-11 cells): > 8000 nM
Structure (SMILES): CN(c1ccnc(Nc2cccc(-c3cccnc3)c2)n1)C1CCCCC1 [Compound 16, N^4-Cyclohexyl-N^4-methyl-N^2-(3-(pyridin-3-yl)phenyl)pyrimidine-2,4-diamine]

IC50 [1]: > 15000 nM
EC50 (MV4-11 cells): 39 nM
Structure (SMILES): CN(c1cccc(-c2cccnc2)c1)c1nccc(N(C)C2CCCCC2)n1 [Compound 17, N^4-Cyclohexyl-N^2,N^4-dimethyl-N^2-(3-(pyridin-3-yl)phenyl)pyrimidine-2,4-diamine]

IC50 [1]: 187 nM
EC50 (MV4-11 cells): > 6000 nM
Structure (SMILES): c1cncc(-c2cccc(Nc3nccc(OC4CCCCC4)n3)c2)c1 [Compound 19, 4-(Cyclohexyloxy)-N-(3-(pyridin-3-yl)phenyl)pyrimidin-2-amine]

IC50 [1]: 49 nM
EC50 (MV4-11 cells): > 13000 nM
Structure (SMILES): c1cncc(-c2cccc(Oc3nccc(OC4CCCCC4)n3)c2)c1 [Compound 20, 4-(Cyclohexyloxy)-2-(3-(pyridin-3-yl)phenoxy)pyrimidine]

IC50 [1]: > 11000 nM
EC50 (MV4-11 cells): > 4000 nM
Structure (SMILES): CN(c1cccc(-c2cccnc2)c1)c1nccc(NC2CCCCC2)n1 [Compound 21, N^4-Cyclohexyl-N^2-methyl-N^2-(3-(pyridin-3-yl)phenyl)pyrimidine-2,4-diamine]

fold reduction of FLT3 enzymatic activity compared to 1 [1]: ~40 fold
IC50 [1]: 1260 nM
EC50 (MV4-11 cells): > 14000 nM
Structure (SMILES): c1cncc(-c2cccc(Oc3nccc(NC4CCCCC4)n3)c2)c1 [Compound 22, N-Cyclohexyl-2-(3-(pyridin-3-yl)phenoxy)pyrimidin-4-amine]

EC50 (MV4-11 cells): 0.7 nM
Structure (SMILES): CC(C)(C)c1cc(NC(=O)Nc2ccc(-c3cn4c(n3)sc3cc(OCCN5CCOCC5)ccc34)cc2)no1 [quizartinib, reference compound]
EC50 (BJ cells): > 22000 nM
